Results from patent US10696615B2, “Prenylated hydroxystilbenes” (The University of Sydney, priority 2011, dated 2020).

How the values were obtained:
Type in all cases: cell-based, human
[1] = test system: ADR-RES (NCI/ADR-RES); experiment: NCI in vitro cancer screen, Ovarian Cancer; settings: for TGI: ADR-RES; for GI50 / CC50: Homo sapiens, NCI/ADR-RES; for CC50: read-out: LC50 (the source's name)
[2] = test system: SF-268; experiment: NCI in vitro cancer screen, CNS Cancer; settings: SF-268; for GI50 / CC50: Homo sapiens; for CC50: read-out: LC50 (the source's name)
[3] = test system: A549/ATCC; experiment: NCI in vitro cancer screen, Non-Small Cell Lung Cancer; settings: for GI50 / CC50: Homo sapiens; for CC50: read-out: LC50 (the source's name)
[4] = test system: CCRF-CEM; experiment: NCI in vitro cancer screen, Leukemia; settings: for GI50 / CC50: Homo sapiens; for CC50: read-out: LC50 (the source's name)
[5] = test system: SK-MEL-2; experiment: NCI in vitro cancer screen, Melanoma; settings: SK-MEL-2; for GI50 / LC50: Homo sapiens
[6] = test system: EKVX; experiment: NCI in vitro cancer screen, Non-Small Cell Lung Cancer; settings: for GI50 / CC50: Homo sapiens; for CC50: read-out: LC50 (the source's name)
[7] = test system: ACHN; experiment: NCI in vitro cancer screen, Renal Cancer; settings: for GI50 / CC50: Homo sapiens; for CC50: read-out: LC50 (the source's name)
[8] = test system: HOP-62; experiment: NCI in vitro cancer screen, Non-Small Cell Lung Cancer; settings: HOP-62; for GI50 / CC50: Homo sapiens; for CC50: read-out: LC50 (the source's name)
[9] = test system: UACC-62; experiment: NCI in vitro cancer screen, Melanoma; settings: UACC-62; for GI50 / CC50: Homo sapiens; for CC50: read-out: LC50 (the source's name)
[10] = test system: OVCAR-3; experiment: NCI in vitro cancer screen, Ovarian Cancer; settings: OVCAR-3; for GI50 / CC50: Homo sapiens; for CC50: read-out: LC50 (the source's name)
[11] = test system: SNB-75; experiment: NCI in vitro cancer screen, CNS Cancer; settings: SNB-75; for GI50 / CC50: Homo sapiens; for CC50: read-out: LC50 (the source's name)
[12] = test system: HL-60 (TB); experiment: NCI in vitro cancer screen, Leukemia; settings: HL-60 (TB); for GI50 / CC50: Homo sapiens; for CC50: read-out: LC50 (the source's name)
[13] = test system: NCI-H322M; experiment: NCI in vitro cancer screen, Non-Small Cell Lung Cancer; settings: for GI50 / LC50 (50% lethal concentration): Homo sapiens
[14] = test system: M14; experiment: NCI in vitro cancer screen, Melanoma; settings: M14; for GI50 / CC50: Homo sapiens; for CC50: read-out: LC50 (the source's name)
[15] = test system: RXF-393; experiment: NCI in vitro cancer screen, Renal Cancer; settings: RXF-393; for GI50 / CC50: Homo sapiens; for CC50: read-out: LC50 (the source's name)
[16] = test system: OVCAR-8; experiment: NCI in vitro cancer screen, Ovarian Cancer; settings: OVCAR-8; for GI50 / CC50: Homo sapiens; for CC50: read-out: LC50 (the source's name)
[17] = test system: DU-145; experiment: NCI in vitro cancer screen, Prostate Cancer; settings: DU-145; for GI50 / CC50: Homo sapiens; for CC50: read-out: LC50 (the source's name)
[18] = test system: K-562; experiment: NCI in vitro cancer screen, Leukemia; settings: K-562; for GI50 / CC50: Homo sapiens, K562; for CC50: read-out: LC50 (the source's name)
[19] = test system: SK-MEL-5; experiment: NCI in vitro cancer screen, Melanoma; settings: SK-MEL-5; for GI50 / CC50: Homo sapiens; for CC50: read-out: LC50 (the source's name)
[20] = test system: COLO 205; experiment: NCI in vitro cancer screen, Colon Cancer; settings: COLO 205; for GI50 / CC50: Homo sapiens; for CC50: read-out: LC50 (the source's name)
[21] = test system: HT29; experiment: NCI in vitro cancer screen, Colon Cancer; settings: HT29; for GI50 / CC50: Homo sapiens, HT-29; for CC50: read-out: LC50 (the source's name)
[22] = test system: HCT-116; experiment: NCI in vitro cancer screen, Colon Cancer; settings: HCT-116; for GI50 / LC50 (concentration killing 50% of cells): Homo sapiens
[23] = test system: HS 578T; experiment: NCI in vitro cancer screen, Breast Cancer; settings: for GI50 / CC50: Homo sapiens; for CC50: read-out: LC50 (the source's name)
[24] = test system: RPMI-8226; experiment: NCI in vitro cancer screen, Leukemia; settings: RPMI-8226; for GI50 / CC50: Homo sapiens; for CC50: read-out: LC50 (the source's name)
[25] = test system: HCC-2998; experiment: NCI in vitro cancer screen, Colon Cancer; settings: HCC-2998; for GI50 / CC50: Homo sapiens; for CC50: read-out: LC50 (the source's name)
[26] = test system: HCT-15; experiment: NCI in vitro cancer screen, Colon Cancer; settings: HCT-15; for GI50 / CC50: Homo sapiens; for CC50: read-out: LC50 (the source's name)
[27] = test system: OVCAR-4; experiment: NCI in vitro cancer screen, Ovarian Cancer; settings: OVCAR-4; for GI50 / CC50: Homo sapiens; for CC50: read-out: LC50 (the source's name)
[28] = test system: SK-OV-3; experiment: NCI in vitro cancer screen, Ovarian Cancer; settings: SK-OV-3; for GI50 / CC50: Homo sapiens; for CC50: read-out: LC50 (the source's name)
[29] = test system: OVCAR-5; experiment: NCI in vitro cancer screen, Ovarian Cancer; settings: OVCAR-5; for GI50 / CC50: Homo sapiens; for CC50: read-out: LC50 (the source's name)
[30] = test system: T-47D; experiment: NCI in vitro cancer screen, Breast Cancer; settings: for GI50 / CC50: Homo sapiens, T47D; for CC50: read-out: LC50 (the source's name)
[31] = test system: 786-0; experiment: NCI in vitro cancer screen, Renal Cancer; settings: 786-0; for GI50 / LC50 (50% net cell kill): Homo sapiens

COc1cc(/C=C/c2cc(O)c(CC=C(C)C)c(O)c2)ccc1O [USYDS13, (E)-4-(3-methyl-2-buten-1-yl)-3,4′,5-trihydroxy-3′-methoxystilbene]
TGI [1]: >100 µM
GI50 [1]: 4.41 µM
CC50 [1]: > 100 µM
GI50 [2]: 6.17 µM
CC50 [2]: > 100 µM
TGI [2]: 32.9 µM
TGI [3]: 20.4 µM
GI50 [3]: 4.01 µM
CC50 [3]: > 100 µM
TGI [4]: >100 µM
GI50 [4]: 6.56 µM
CC50 [4]: > 100 µM
GI50 [5]: 3.09 µM
LC50 [5]: 40.2 µM
TGI [5]: 9.37 µM
TGI [6]: 54.6 µM
GI50 [6]: 12.8 µM
CC50 [6]: > 100 µM
TGI [7]: >100 µM
GI50 [7]: 5.11 µM
CC50 [7]: > 100 µM
TGI [8]: 20.4 µM
GI50 [8]: 5.66 µM
CC50 [8]: 53.7 µM
GI50 [9]: 5.3 µM
CC50 [9]: 58.8 µM
TGI [9]: 19.7 µM
GI50 [10]: 7.98 µM
CC50 [10]: > 100 µM
TGI [10]: 39.8 µM
GI50 [11]: 5.47 µM
CC50 [11]: > 100 µM
TGI [11]: 36.6 µM
TGI [12]: 17.1 µM
GI50 [12]: 2.55 µM
CC50 [12]: > 100 µM
TGI [13]: 28.5 µM
GI50 [13]: 5.9 µM
LC50 (50% lethal concentration) [13]: > 100 µM
GI50 [14]: 4.92 µM
CC50 [14]: 51.6 µM
TGI [14]: 18.5 µM
GI50 [15]: 5.48 µM
CC50 [15]: 46.5 µM
TGI [15]: 18.9 µM
GI50 [16]: 5.48 µM
CC50 [16]: > 100 µM
TGI [16]: 59.8 µM
TGI [17]: 31.6 µM
GI50 [17]: 6.82 µM
CC50 [17]: > 100 µM
GI50 [18]: 4.08 µM
CC50 [18]: > 100 µM
TGI [18]: 57.5 µM
GI50 [19]: 2.5 µM
CC50 [19]: 29.2 µM
TGI [19]: 8.54 µM
TGI [20]: 28.9 µM
GI50 [20]: 15.6 µM
CC50 [20]: 53.8 µM
TGI [21]: 36.9 µM
GI50 [21]: 17.8 µM
CC50 [21]: 76.8 µM
TGI [22]: 15.6 µM
GI50 [22]: 4.33 µM
LC50 (concentration killing 50% of cells) [22]: 45.6 µM
TGI [23]: 15.0 µM
GI50 [23]: 2.4 µM
CC50 [23]: > 100 µM
GI50 [24]: 9.05 µM
CC50 [24]: > 100 µM
TGI [24]: 51.6 µM
TGI [25]: 30.6 µM
GI50 [25]: 11 µM
CC50 [25]: 85.3 µM
TGI [26]: 20.5 µM
GI50 [26]: 4.25 µM
CC50 [26]: 84.5 µM
GI50 [27]: 9.68 µM
CC50 [27]: > 100 µM
TGI [27]: 74.8 µM
GI50 [28]: 7.96 µM
CC50 [28]: > 100 µM
TGI [28]: 36.2 µM
GI50 [29]: 13.9 µM
CC50 [29]: > 100 µM
TGI [29]: 79.3 µM
TGI [30]: 14.7 µM
GI50 [30]: 2.92 µM
CC50 [30]: 70.5 µM
TGI [31]: 24.5 µM
GI50 [31]: 5.24 µM
LC50 (50% net cell kill) [31]: > 100 µM

CC(C)=CCOc1cc(O)cc(/C=C/c2ccc(O)c(O)c2)c1 [USYDS4, (E)-3-(3-methyl-2-butenyloxy)-3′,4′,5-trihydroxystilbene]
TGI [1]: 48.3 µM
GI50 [1]: 1.11 µM
CC50 [1]: > 100 µM
GI50 [2]: 3.89 µM
CC50 [2]: > 100 µM
TGI [2]: 23.2 µM
TGI [3]: 25.6 µM
GI50 [3]: 4.74 µM
CC50 [3]: > 100 µM
TGI [4]: >100 µM
GI50 [4]: 3.5 µM
CC50 [4]: > 100 µM
GI50 [5]: 2.18 µM
LC50 [5]: 31 µM
TGI [5]: 6.57 µM
TGI [6]: 59.6 µM
GI50 [6]: 9.55 µM
CC50 [6]: > 100 µM
TGI [7]: >100 µM
GI50 [7]: 4.57 µM
CC50 [7]: > 100 µM
TGI [8]: 26.3 µM
GI50 [8]: 6.49 µM
CC50 [8]: 83.4 µM
GI50 [9]: 4.53 µM
CC50 [9]: 44.4 µM
TGI [9]: 16.8 µM
GI50 [10]: 3.98 µM
CC50 [10]: 44.9 µM
TGI [10]: 15.0 µM
GI50 [11]: 1.77 µM
CC50 [11]: 48.3 µM
TGI [11]: 9.11 µM
TGI [12]: 6.04 µM
GI50 [12]: 2.59 µM
CC50 [12]: > 100 µM
TGI [13]: 54.7 µM
GI50 [13]: 12.8 µM
LC50 (50% lethal concentration) [13]: > 100 µM
GI50 [14]: 0.91 µM
CC50 [14]: 46.3 µM
TGI [14]: 15.4 µM
GI50 [15]: 2.17 µM
CC50 [15]: 46 µM
TGI [15]: 15.3 µM
GI50 [16]: 4.94 µM
CC50 [16]: > 100 µM
TGI [16]: 31.1 µM
TGI [17]: 44.6 µM
GI50 [17]: 6.37 µM
CC50 [17]: > 100 µM
GI50 [18]: 2.35 µM
CC50 [18]: > 100 µM
TGI [18]: >100 µM
GI50 [19]: 1.42 µM
CC50 [19]: 30 µM
TGI [19]: 8.35 µM
TGI [20]: 23.0 µM
GI50 [20]: 9.72 µM
CC50 [20]: 53.5 µM
TGI [21]: 32.5 µM
GI50 [21]: 16.3 µM
CC50 [21]: 64.7 µM
TGI [22]: 16.0 µM
GI50 [22]: 4.55 µM
LC50 (concentration killing 50% of cells) [22]: 40.6 µM
TGI [23]: 7.11 µM
GI50 [23]: 1 µM
CC50 [23]: > 100 µM
GI50 [24]: 2.35 µM
CC50 [24]: > 100 µM
TGI [24]: 25.4 µM
TGI [25]: 19.0 µM
GI50 [25]: 5.16 µM
CC50 [25]: 53.4 µM
TGI [26]: 34.9 µM
GI50 [26]: 1.77 µM
CC50 [26]: > 100 µM
GI50 [27]: 3.98 µM
CC50 [27]: > 100 µM
TGI [27]: 50.4 µM
GI50 [28]: 8.91 µM
CC50 [28]: > 100 µM
TGI [28]: 57.0 µM
GI50 [29]: 15.9 µM
CC50 [29]: > 100 µM
TGI [29]: 51.4 µM
TGI [30]: 6.93 µM
GI50 [30]: 2.13 µM
CC50 [30]: > 100 µM
TGI [31]: 20.5 µM
GI50 [31]: 4.41 µM
LC50 (50% net cell kill) [31]: > 100 µM
